Where a name gives a salt, the structure may show the parent alone.
experiment: Growth inhibition of human PC3 cells by colorimetric MTT assay; type: functional; conditions: PC-3

Row | Structure (SMILES) | GI50
1 | C=CC(=C)[C@H](C[C@H]1C(=C)CC[C@H]2[C@](C)(CO)CCC[C@]12C)OO | 50.9 µM
2 | C=CC(=C)[C@H](C[C@H]1C(=C)CC[C@@H]2[C@]1(C)CCC[C@@]2(C)C(=O)O)OO | > 100 µM
3 | Cc1cc2c(C(C)C)ccc(C)c2cc1O | 54 µM
4 | COc1cc(O)c2c(=O)cc(-c3ccc(O)c(-c4c(O)cc(O)c5c(=O)cc(-c6ccc(O)cc6)oc45)c3)oc2c1 [SEQUOIAFLAVONE] | 43.3 µM
5 | COc1ccc(-c2cc(=O)c3c(O)cc(O)c(-c4cc(-c5cc(=O)c6c(O)cc(O)cc6o5)ccc4O)c3o2)cc1 [PODOCARPUSFLAVONE A] | > 100 µM
6 | COc1cccc2c1C(=O)c1c(O)c3c(c(O)c1C2=O)C[C@@](O)(C(=O)CO)C[C@@H]3O[C@H]1C[C@H](N)[C@H](O)[C@H](C)O1 [DOXORUBICIN HYDROCHLORIDE] | 1.1 µM
7 | C=C/C(C)=C/C[C@H]1C(=C)CC[C@@H]2[C@]1(C)CCC[C@@]2(C)C(=O)O | > 100 µM
8 | C=C/C(C)=C/C[C@H]1C(=C)CC[C@H]2[C@](C)(CO)CCC[C@]12C | 35 µM
9 | CC(C)c1cc2c3c(c1O)O[C@@H]1CCC(C)(C)[C@H](CC2)[C@@]31C | 27.4 µM
10 | C=CC(=C)CC[C@@H]1[C@@]2(C)CCC[C@](C)(COC(=O)/C=C/c3ccccc3)[C@@H]2CC[C@@]1(C)O | 10.6 µM
11 | C=CC(=C)CC[C@@H]1[C@@]2(C)CCC[C@](C)(COC(=O)/C=C\c3ccccc3)[C@@H]2CC[C@@]1(C)O | > 100 µM
12 | C=C/C(C)=C/[C@@H](OC(C)=O)[C@H]1C(=C)CC[C@@H]2[C@]1(C)CCC[C@@]2(C)C(=O)O | 57.2 µM
13 | C=CC(=C)[C@@H](C[C@H]1C(=C)CC[C@@H]2[C@]1(C)CCC[C@@]2(C)C(=O)O)OO | 38 µM
14 | C=CC(=C)[C@@H](C[C@H]1C(=C)CC[C@H]2[C@](C)(CO)CCC[C@]12C)OO | 34.4 µM
15 | C=C/C(C)=C/[C@@H](OC(C)=O)[C@H]1C(=C)CC[C@@H]2[C@]1(C)CCC[C@@]2(C)C(=O)OC | 58.3 µM

From ChEMBL document CHEMBL3399964, “Nine new diterpenes from the leaves of plantation-grown Cunninghamia lanceolata” (2015)
